Source: ChEMBL document CHEMBL4152326 (2018)

What follows are molecules tested on Pseudomonas aeruginosa (assay: Antimicrobial activity against Pseudomonas aeruginosa SR24 in presence of human apo-transferrin by broth microdilution method).
Assay type: functional

| Compound | MIC [µg/mL] |
| --- | --- |
| CC(C)(O/N=C(\C(=O)N[C@@H]1C(=O)N2C(C(=O)[O-])=C(C[N+]3(C)CCN(C(=O)c4ccc(O)c(O)c4Cl)CC3)CS[C@H]12)c1csc(N)n1)C(=O)O | 0.125 |
| CC(C)(O/N=C(\C(=O)N[C@@H]1C(=O)N2C(C(=O)[O-])=C(C[N+]3(Cc4nnc(-c5ccc(O)c(O)c5Cl)o4)CCCC3)CS[C@H]12)c1csc(N)n1)C(=O)O | 0.5 |
| NCC[N+]1(CC2=C(C(=O)[O-])N3C(=O)[C@@H](NC(=O)/C(=N\O[C@@H](CNC(=O)c4ccc(O)c(O)c4Cl)C(=O)O)c4csc(N)n4)[C@H]3SC2)CCCC1 | 0.125 |

These molecules were tested on Pseudomonas aeruginosa (assay: Antimicrobial activity against AmpC overproducing Pseudomonas aeruginosa SR24-12 in presence of human apo-transferrin by broth microdilution method).
Assay type: functional

| Compound | MIC [µg/mL] |
| --- | --- |
| CC(C)(O/N=C(\C(=O)N[C@@H]1C(=O)N2C(C(=O)[O-])=C(C[N+]3(C)CCN(C(=O)c4ccc(O)c(O)c4Cl)CC3)CS[C@H]12)c1csc(N)n1)C(=O)O | 0.125 |
| CC(C)(O/N=C(\C(=O)N[C@@H]1C(=O)N2C(C(=O)[O-])=C(C[N+]3(Cc4nnc(-c5ccc(O)c(O)c5Cl)o4)CCCC3)CS[C@H]12)c1csc(N)n1)C(=O)O | 0.5 |
| NCC[N+]1(CC2=C(C(=O)[O-])N3C(=O)[C@@H](NC(=O)/C(=N\O[C@@H](CNC(=O)c4ccc(O)c(O)c4Cl)C(=O)O)c4csc(N)n4)[C@H]3SC2)CCCC1 | 0.063 |

Each molecule was assayed on Pseudomonas aeruginosa (assay: Antimicrobial activity against IMP-1 producing Pseudomonas aeruginosa SR27001 in presence of human apo-transferrin by broth microdilution method).
Assay type: functional

| Compound | MIC [µg/mL] |
| --- | --- |
| CC(C)(O/N=C(\C(=O)N[C@@H]1C(=O)N2C(C(=O)[O-])=C(C[N+]3(C)CCN(C(=O)c4ccc(O)c(O)c4Cl)CC3)CS[C@H]12)c1csc(N)n1)C(=O)O | 4 |
| CC(C)(O/N=C(\C(=O)N[C@@H]1C(=O)N2C(C(=O)[O-])=C(C[N+]3(Cc4nnc(-c5ccc(O)c(O)c5Cl)o4)CCCC3)CS[C@H]12)c1csc(N)n1)C(=O)O | 2 |
| NCC[N+]1(CC2=C(C(=O)[O-])N3C(=O)[C@@H](NC(=O)/C(=N\O[C@@H](CNC(=O)c4ccc(O)c(O)c4Cl)C(=O)O)c4csc(N)n4)[C@H]3SC2)CCCC1 | 0.5 |

These molecules were tested on Pseudomonas aeruginosa (assay: Antimicrobial activity against VIM-2 producing Pseudomonas aeruginosa SBRKM-28 in presence of human apo-transferrin by broth microdilution method).
Assay type: functional

| Compound | MIC [µg/mL] |
| --- | --- |
| CC(C)(O/N=C(\C(=O)N[C@@H]1C(=O)N2C(C(=O)[O-])=C(C[N+]3(Cc4nnc(-c5ccc(O)c(O)c5Cl)o4)CCCC3)CS[C@H]12)c1csc(N)n1)C(=O)O | 0.125 |

What follows are molecules tested on Pseudomonas aeruginosa (assay: Antimicrobial activity against IMP-1 producing Pseudomonas aeruginosa SR27060 in presence of human apo-transferrin by broth microdilution method).
Assay type: functional

| Compound | MIC [µg/mL] |
| --- | --- |
| CC(C)(O/N=C(\C(=O)N[C@@H]1C(=O)N2C(C(=O)[O-])=C(C[N+]3(C)CCN(C(=O)c4ccc(O)c(O)c4Cl)CC3)CS[C@H]12)c1csc(N)n1)C(=O)O | 8 |
| CC(C)(O/N=C(\C(=O)N[C@@H]1C(=O)N2C(C(=O)[O-])=C(C[N+]3(Cc4nnc(-c5ccc(O)c(O)c5Cl)o4)CCCC3)CS[C@H]12)c1csc(N)n1)C(=O)O | 2 |
| NCC[N+]1(CC2=C(C(=O)[O-])N3C(=O)[C@@H](NC(=O)/C(=N\O[C@@H](CNC(=O)c4ccc(O)c(O)c4Cl)C(=O)O)c4csc(N)n4)[C@H]3SC2)CCCC1 | 0.125 |

What follows are molecules tested on Pseudomonas aeruginosa (assay: Antimicrobial activity against Pseudomonas aeruginosa 27060deltaR1 harboring deletion of R1 plasmid in presence of human apo-transferrin by broth microdilution method).
Assay type: functional

| Compound | MIC [µg/mL] |
| --- | --- |
| CC(C)(O/N=C(\C(=O)N[C@@H]1C(=O)N2C(C(=O)[O-])=C(C[N+]3(C)CCN(C(=O)c4ccc(O)c(O)c4Cl)CC3)CS[C@H]12)c1csc(N)n1)C(=O)O | 0.25 |
| CC(C)(O/N=C(\C(=O)N[C@@H]1C(=O)N2C(C(=O)[O-])=C(C[N+]3(Cc4nnc(-c5ccc(O)c(O)c5Cl)o4)CCCC3)CS[C@H]12)c1csc(N)n1)C(=O)O | 0.5 |
| NCC[N+]1(CC2=C(C(=O)[O-])N3C(=O)[C@@H](NC(=O)/C(=N\O[C@@H](CNC(=O)c4ccc(O)c(O)c4Cl)C(=O)O)c4csc(N)n4)[C@H]3SC2)CCCC1 | 0.063 |

Each molecule was assayed on Stenotrophomonas maltophilia (assay: Antimicrobial activity against L-1 producing Stenotrophomonas maltophilia SR21970 in presence of human apo-transferrin by broth microdilution method).
Assay type: functional

| Compound | MIC [µg/mL] |
| --- | --- |
| CC(C)(O/N=C(\C(=O)N[C@@H]1C(=O)N2C(C(=O)[O-])=C(C[N+]3(C)CCN(C(=O)c4ccc(O)c(O)c4Cl)CC3)CS[C@H]12)c1csc(N)n1)C(=O)O | 1 |
| CC(C)(O/N=C(\C(=O)N[C@@H]1C(=O)N2C(C(=O)[O-])=C(C[N+]3(Cc4nnc(-c5ccc(O)c(O)c5Cl)o4)CCCC3)CS[C@H]12)c1csc(N)n1)C(=O)O | 0.5 |
| NCC[N+]1(CC2=C(C(=O)[O-])N3C(=O)[C@@H](NC(=O)/C(=N\O[C@@H](CNC(=O)c4ccc(O)c(O)c4Cl)C(=O)O)c4csc(N)n4)[C@H]3SC2)CCCC1 | 16 |

The molecules below were run on Acinetobacter baumannii (assay: Antimicrobial activity against OXA-23/OXA-58 producing Acinetobacter baumannii SR27323 in presence of human apo-transferrin by broth microdilution method).
Assay type: functional

| Compound | MIC [µg/mL] |
| --- | --- |
| CC(C)(O/N=C(\C(=O)N[C@@H]1C(=O)N2C(C(=O)[O-])=C(C[N+]3(C)CCN(C(=O)c4ccc(O)c(O)c4Cl)CC3)CS[C@H]12)c1csc(N)n1)C(=O)O | 1 |
| NCC[N+]1(CC2=C(C(=O)[O-])N3C(=O)[C@@H](NC(=O)/C(=N\O[C@@H](CNC(=O)c4ccc(O)c(O)c4Cl)C(=O)O)c4csc(N)n4)[C@H]3SC2)CCCC1 | 0.5 |

The molecules below were run on Klebsiella pneumoniae (assay: Antimicrobial activity against KPC-2 producing Klebsiella pneumoniae ATCC BAA-1705 in presence of human apo-transferrin by broth microdilution method).
Assay type: functional

| Compound | MIC [µg/mL] |
| --- | --- |
| CC(C)(O/N=C(\C(=O)N[C@@H]1C(=O)N2C(C(=O)[O-])=C(C[N+]3(C)CCN(C(=O)c4ccc(O)c(O)c4Cl)CC3)CS[C@H]12)c1csc(N)n1)C(=O)O | 0.125 |
| NCC[N+]1(CC2=C(C(=O)[O-])N3C(=O)[C@@H](NC(=O)/C(=N\O[C@@H](CNC(=O)c4ccc(O)c(O)c4Cl)C(=O)O)c4csc(N)n4)[C@H]3SC2)CCCC1 | 0.125 |

The molecules below were run on Escherichia coli (assay: Antimicrobial activity against SHV-4 producing Escherichia coli ATCC BAA-200 in presence of human apo-transferrin by broth microdilution method).
Assay type: functional

| Compound | MIC [µg/mL] |
| --- | --- |
| CC(C)(O/N=C(\C(=O)N[C@@H]1C(=O)N2C(C(=O)[O-])=C(C[N+]3(C)CCN(C(=O)c4ccc(O)c(O)c4Cl)CC3)CS[C@H]12)c1csc(N)n1)C(=O)O | 32 |
| NCC[N+]1(CC2=C(C(=O)[O-])N3C(=O)[C@@H](NC(=O)/C(=N\O[C@@H](CNC(=O)c4ccc(O)c(O)c4Cl)C(=O)O)c4csc(N)n4)[C@H]3SC2)CCCC1 | 8 |
